Measurements: US20140137294A1, “GLUCOSINOLATE TRANSPORTER PROTEIN AND USES THEREOF” (UNIVERSITY OF COPENHAGEN, priority 2010, published 2014)

Molecular target: T1, AtGTR2 (Arabidopsis thaliana, UniProt Q9LV10)
T1 construct: expressed in transfected cells; host or cells: Xenopus oocytes injected with in vitro transcribed cRNA (vector pNB1u)
T1 sequence (Q9LV10 1-616): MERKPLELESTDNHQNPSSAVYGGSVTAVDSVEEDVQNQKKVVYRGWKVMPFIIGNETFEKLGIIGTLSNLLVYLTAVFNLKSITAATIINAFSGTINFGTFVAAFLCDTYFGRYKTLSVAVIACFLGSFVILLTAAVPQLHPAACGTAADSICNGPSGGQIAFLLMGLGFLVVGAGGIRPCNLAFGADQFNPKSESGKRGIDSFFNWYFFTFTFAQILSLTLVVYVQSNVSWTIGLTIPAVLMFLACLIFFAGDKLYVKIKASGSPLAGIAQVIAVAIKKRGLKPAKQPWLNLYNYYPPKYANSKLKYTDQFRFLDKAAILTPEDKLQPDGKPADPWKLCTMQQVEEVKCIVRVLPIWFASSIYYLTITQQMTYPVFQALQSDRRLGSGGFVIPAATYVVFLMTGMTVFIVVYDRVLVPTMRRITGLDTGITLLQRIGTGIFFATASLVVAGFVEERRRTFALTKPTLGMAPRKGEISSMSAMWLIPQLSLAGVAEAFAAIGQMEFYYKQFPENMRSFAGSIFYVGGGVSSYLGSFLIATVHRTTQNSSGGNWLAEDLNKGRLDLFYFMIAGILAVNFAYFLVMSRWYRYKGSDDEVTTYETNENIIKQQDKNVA
Test: Uptake of C14-labeled pOHBG in AtGTR2 expressing oocytes in presence of excess competitor
Assay type: cell-based
Conditions: 50× excess unlabeled competitor, AtGTR2, pH 5
Description: FIG. 3: Biochemical analysis of AtGTR1 and 2 mediated GSL transport in Xenopus oocytes. A and B, pH dependence of AtGTR-mediated GSL transport. A, AtGTR2 mediated 4-MTB uptake measured by LC-MS analysis of oocyte extracts, n=3 oocytes. B, AtGTR1 currents induced by 1 mM 4-MTB were measured at different membrane potentials at pH 5 ([…]), pH 6 (♦), and pH 7 (▴). Currents were normalized to the current induced at pH 5 at −60 mV, error bars are SD, n=4 oocytes. C and D, kinetic analysis of AtGTR-mediated glucosinolate transport. […]
The substrate specificity investigations were extended to include substrates previously identified for the NRT/PTR transporter family namely di- and tripeptides and nitrate. […] However, perfusing with 1 mM NO3^− did result in currents but these amounted only to 1/10th of currents measured when perfusing with 100 μM 4-MTB (FIG. 3F). […]
For assays with radiolabeled substrates, single oocytes were ruptured in 100 μl 10% SDS in 4 ml scintillation vials by shaking for 20-30 minutes. 2.5 ml EcoScint™ scintillation fluid (National Diagnostics) was added, and imported compounds quantified by scintillation counting. For assays with unlabeled substrates, oocyte extracts were analysed by LC-MS. Oocytes were analyzed in batches of 5 oocytes per repetition. […]

## CSCCCC/C(=N/OS(=O)(=O)O)S[C@@H]1O[C@H](CO)[C@@H](O)[C@H](O)[C@H]1O [4-MTB, 4-methylthiobutyl glucosinolate]
  effect on uptake of 40 μM C14-labeled pOHBG: reduced the uptake of pOHBG to background levels
